Measurements: US20220168307A1, “TREATMENT OF SMA” (Hoffmann-La Roche Inc., priority 2019, published 2022)
Entries after “also recorded” stand apart in the source; their conditions may differ. Where two headings read alike, the source gives them in different places.

Legend:
CYP2D6 [1] = target: T1, CYP2D6 (Homo sapiens, UniProt P10635); assay: Time-dependent inhibition (IC50 shift) of CYP2D6 in human liver microsomes; type: in vitro ADME; conditions: risdiplam up to 12.5 μM
Procedure: (§1) Donors CMV negative for serology are unm
(§2) All incubations were conducted in duplicate.
(§3) % remaining=(C+I/C^−I)*100

CYP2C19 [2] = target: T2, CYP2C19 (Homo sapiens, UniProt P33261); assay: Time-dependent inhibition (IC50 shift) of CYP2C19 in human liver microsomes; conditions: risdiplam up to 12.5 μM
T2 sequence (P33261 whole entry): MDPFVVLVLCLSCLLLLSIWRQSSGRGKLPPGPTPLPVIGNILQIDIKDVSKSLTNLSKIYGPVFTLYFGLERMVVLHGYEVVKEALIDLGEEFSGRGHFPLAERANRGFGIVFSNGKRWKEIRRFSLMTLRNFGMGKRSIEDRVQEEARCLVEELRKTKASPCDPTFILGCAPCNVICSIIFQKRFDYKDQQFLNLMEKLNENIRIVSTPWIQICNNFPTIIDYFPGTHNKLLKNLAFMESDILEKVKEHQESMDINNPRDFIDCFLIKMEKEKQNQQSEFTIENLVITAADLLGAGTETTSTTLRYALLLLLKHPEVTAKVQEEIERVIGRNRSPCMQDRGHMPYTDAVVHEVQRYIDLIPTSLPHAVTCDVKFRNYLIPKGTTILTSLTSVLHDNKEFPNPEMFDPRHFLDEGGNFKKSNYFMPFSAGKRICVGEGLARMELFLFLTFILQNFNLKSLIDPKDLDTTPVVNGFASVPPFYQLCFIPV

CYP2C9 [3] = target: T3, CYP2C9 (Homo sapiens, UniProt P11712); assay: biochemical
T3 sequence (P11712 whole entry): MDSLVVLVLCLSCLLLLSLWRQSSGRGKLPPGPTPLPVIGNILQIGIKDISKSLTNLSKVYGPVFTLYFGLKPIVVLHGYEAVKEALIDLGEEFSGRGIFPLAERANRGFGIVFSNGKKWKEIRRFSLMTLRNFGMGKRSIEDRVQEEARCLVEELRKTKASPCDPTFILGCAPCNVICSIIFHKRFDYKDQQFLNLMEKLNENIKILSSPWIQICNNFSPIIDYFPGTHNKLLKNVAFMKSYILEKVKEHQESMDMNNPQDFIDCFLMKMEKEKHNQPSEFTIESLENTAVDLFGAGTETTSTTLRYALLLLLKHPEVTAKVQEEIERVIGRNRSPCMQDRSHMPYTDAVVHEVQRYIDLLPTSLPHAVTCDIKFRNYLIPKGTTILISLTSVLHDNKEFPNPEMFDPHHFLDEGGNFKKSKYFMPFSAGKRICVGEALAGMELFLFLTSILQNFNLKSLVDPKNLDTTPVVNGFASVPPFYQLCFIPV

CYP2C8 [4] = target: T4, CYP2C8 (Homo sapiens, UniProt P10632); assay: Direct inhibition of CYP2C8 (amodiaquine) in human liver microsomes
T4 sequence (P10632 1-490): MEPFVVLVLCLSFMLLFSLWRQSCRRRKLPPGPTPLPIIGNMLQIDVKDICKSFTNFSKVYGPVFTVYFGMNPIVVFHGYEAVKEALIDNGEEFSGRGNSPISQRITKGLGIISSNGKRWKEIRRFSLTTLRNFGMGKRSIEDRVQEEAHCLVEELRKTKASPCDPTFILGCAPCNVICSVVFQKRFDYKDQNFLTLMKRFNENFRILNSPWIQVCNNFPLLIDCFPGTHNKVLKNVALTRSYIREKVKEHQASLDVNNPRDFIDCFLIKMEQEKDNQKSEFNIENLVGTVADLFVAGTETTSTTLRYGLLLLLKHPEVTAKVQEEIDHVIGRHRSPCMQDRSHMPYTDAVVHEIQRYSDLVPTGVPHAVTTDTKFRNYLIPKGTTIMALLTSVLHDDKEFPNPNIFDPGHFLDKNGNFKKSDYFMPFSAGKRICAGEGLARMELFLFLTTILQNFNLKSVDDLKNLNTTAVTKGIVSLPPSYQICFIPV

CYP3A4 [5] = target: T5, CYP3A4 (Homo sapiens, UniProt P08684); assay: Direct inhibition of CYP3A4 (midazolam and testosterone) in human liver microsomes; type: in vitro ADME; conditions: human, microsomes
Target sequence in this assay (P08684 2-503): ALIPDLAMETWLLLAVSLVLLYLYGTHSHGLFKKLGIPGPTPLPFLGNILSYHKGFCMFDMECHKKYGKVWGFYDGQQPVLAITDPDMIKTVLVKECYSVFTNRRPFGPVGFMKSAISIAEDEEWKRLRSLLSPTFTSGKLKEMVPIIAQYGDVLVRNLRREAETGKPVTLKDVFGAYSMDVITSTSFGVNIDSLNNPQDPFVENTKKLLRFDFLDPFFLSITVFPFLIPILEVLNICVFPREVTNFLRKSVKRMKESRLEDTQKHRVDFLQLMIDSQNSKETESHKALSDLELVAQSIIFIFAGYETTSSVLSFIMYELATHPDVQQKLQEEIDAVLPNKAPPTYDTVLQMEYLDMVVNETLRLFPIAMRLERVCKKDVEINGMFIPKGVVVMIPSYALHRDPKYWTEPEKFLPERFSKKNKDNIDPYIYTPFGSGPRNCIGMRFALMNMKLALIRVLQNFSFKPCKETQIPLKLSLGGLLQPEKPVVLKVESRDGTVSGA

CYP2B6 = target: T6, CYP2B6 (Homo sapiens, UniProt P20813); assay: biochemical
T6 sequence (P20813 1-491): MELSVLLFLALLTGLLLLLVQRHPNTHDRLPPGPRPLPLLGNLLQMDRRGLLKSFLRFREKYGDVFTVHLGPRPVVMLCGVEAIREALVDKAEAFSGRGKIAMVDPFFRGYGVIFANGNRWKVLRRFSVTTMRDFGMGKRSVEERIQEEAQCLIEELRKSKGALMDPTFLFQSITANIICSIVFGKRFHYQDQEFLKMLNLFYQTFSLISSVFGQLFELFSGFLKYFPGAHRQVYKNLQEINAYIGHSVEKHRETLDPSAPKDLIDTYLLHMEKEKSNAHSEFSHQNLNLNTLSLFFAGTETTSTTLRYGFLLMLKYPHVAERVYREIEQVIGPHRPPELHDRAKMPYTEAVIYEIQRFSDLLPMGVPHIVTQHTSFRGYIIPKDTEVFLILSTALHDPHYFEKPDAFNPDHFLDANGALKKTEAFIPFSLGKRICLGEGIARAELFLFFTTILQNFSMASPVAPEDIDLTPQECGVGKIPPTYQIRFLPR

CYP2C9 [6] = target: T3, CYP2C9; assay: Time-dependent inhibition (IC50 shift) of CYP2C9 in human liver microsomes; type: in vitro ADME; conditions: risdiplam up to 12.5 μM
Procedure: as §1, §2, §3

CYP2D6 [7] = target: T1, CYP2D6
CYP2C8 [8] = target: T4, CYP2C8; assay: Time-dependent inhibition (IC50 shift) of CYP2C8 in human liver microsomes; conditions: risdiplam up to 12.5 μM
Procedure: as §1, §2, §3

CYP2C19 [9] = target: T2, CYP2C19; assay: biochemical
[10] = Risdiplam treatment of patients with SMA: safety and exposure; type: in vivo, human
CYP2D6 [11] = target: T1, CYP2D6; assay: in vitro; conditions: pooled human liver microsomes, pH 7.4, probe dextromethorphan, % Control activity at, direct inhibition, substrate Dextromethorphan, concentration not given, duplicates
CYP3A4 [12] = target: T5, CYP3A4; conditions: microsomes, pH 7.4
Procedure: as §1, §2
(§4) The first order rate constant for inactivation (λ or kabs) was estimated from slopes of the linear portion of the curves.
Target sequence in this assay (P08684 whole entry): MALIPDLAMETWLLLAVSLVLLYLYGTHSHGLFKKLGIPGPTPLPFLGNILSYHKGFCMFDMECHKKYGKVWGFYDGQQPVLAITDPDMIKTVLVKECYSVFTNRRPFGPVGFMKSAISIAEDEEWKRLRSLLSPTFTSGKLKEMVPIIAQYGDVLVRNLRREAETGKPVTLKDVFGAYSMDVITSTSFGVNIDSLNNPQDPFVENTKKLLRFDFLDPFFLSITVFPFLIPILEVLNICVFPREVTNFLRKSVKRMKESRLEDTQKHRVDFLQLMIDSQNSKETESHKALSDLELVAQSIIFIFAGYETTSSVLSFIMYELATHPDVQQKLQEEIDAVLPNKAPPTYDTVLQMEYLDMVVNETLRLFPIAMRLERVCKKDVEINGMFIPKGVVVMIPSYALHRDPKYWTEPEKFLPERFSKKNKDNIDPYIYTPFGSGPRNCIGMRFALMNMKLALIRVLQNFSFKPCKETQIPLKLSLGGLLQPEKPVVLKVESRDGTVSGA

CYP3A4 [13] = conditions: human, pH 7.4
Procedure: as §1, §2, §4

T1 sequence (P10635 whole entry): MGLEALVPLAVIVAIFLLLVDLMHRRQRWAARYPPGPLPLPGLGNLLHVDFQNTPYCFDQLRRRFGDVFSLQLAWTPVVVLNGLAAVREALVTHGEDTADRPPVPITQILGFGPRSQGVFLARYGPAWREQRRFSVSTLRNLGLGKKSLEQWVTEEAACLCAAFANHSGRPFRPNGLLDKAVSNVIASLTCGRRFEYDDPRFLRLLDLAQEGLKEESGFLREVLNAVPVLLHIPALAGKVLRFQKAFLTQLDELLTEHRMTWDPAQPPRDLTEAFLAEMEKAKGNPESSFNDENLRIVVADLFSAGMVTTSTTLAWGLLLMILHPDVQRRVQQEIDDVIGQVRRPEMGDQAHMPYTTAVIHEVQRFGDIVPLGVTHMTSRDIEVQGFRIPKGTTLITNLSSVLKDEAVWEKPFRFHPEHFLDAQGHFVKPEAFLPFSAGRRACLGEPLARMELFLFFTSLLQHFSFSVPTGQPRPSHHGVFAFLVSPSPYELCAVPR

## Cc1cn2nc(-c3cc(=O)n4cc(N5CCNC6(CC6)C5)ccc4n3)cc(C)c2n1 [risdiplam, 7-(4,7-diazaspiro[2.5]octan-7-yl)-2-(2,8-dimethylimidazo[1,2-b]pyridazin-6-yl)pyrido[1,2-a]pyrimidin-4-one]
CYP2D6 [1]
  time-dependent inhibition (in words): did not show any significant reversible or time-dependent inhibition; also recorded: No significant reversible or time-dependent inhibition; also recorded: No significant time-dependent inhibition; also recorded: low potential to cause direct or time-dependent inhibition
CYP2C19 [2]
  time-dependent inhibition (in words): did not show any significant reversible or time-dependent inhibition; also recorded: No significant reversible or time-dependent inhibition; also recorded: No significant time-dependent inhibition; also recorded: low potential to cause direct or time-dependent inhibition
CYP2C9 [3]
  IC50: > 12.5 µM
CYP2C8 [4]; direct inhibition, substrate Amodiaquine, concentration not given, duplicates
  % Control activity at: 91%
CYP2C8 [4]; risdiplam up to 12.5 μM
  reversible (direct) inhibition (in words): did not show any significant reversible or time-dependent inhibition; also recorded: No significant reversible or time-dependent inhibition; also recorded: No significant reversible inhibition; also recorded: low potential to cause direct or time-dependent inhibition
CYP3A4 [5]; pH 7.4, IC50, direct inhibition, substrate Midazolam
  IC50: > 12.5 µM
CYP3A4 [5]; pH 7.4, IC50, direct inhibition, substrate Testosterone
  IC50: 11 µM
CYP3A4 [5]; pH 7.4, IC50, direct, CYP3A4-Midazolam Activity
  IC50: < 12.5 µM
CYP2B6
  IC50: > 12.5 µM
CYP2C9 [6]
  time-dependent inhibition (in words): did not show any significant reversible or time-dependent inhibition; also recorded: No significant reversible or time-dependent inhibition; also recorded: No significant time-dependent inhibition; also recorded: low potential to cause direct or time-dependent inhibition
CYP2D6 [7]; direct inhibition, substrate Dextromethorphan, concentration not given, duplicates
  % Control activity at: 95%
CYP2D6 [7]; risdiplam up to 12.5 μM
  reversible (direct) inhibition (in words): did not show any significant reversible or time-dependent inhibition; also recorded: No significant reversible or time-dependent inhibition; also recorded: No significant reversible inhibition; also recorded: low potential to cause direct or time-dependent inhibition
CYP2C8 [8]
  time-dependent inhibition (in words): did not show any significant reversible or time-dependent inhibition; also recorded: No significant reversible or time-dependent inhibition; also recorded: No significant time-dependent inhibition; also recorded: low potential to cause direct or time-dependent inhibition
CYP2C19 [9]
  IC50: > 12.5 µM
[10]; 5 mg risdiplam, more than 1 year of treatment, patients with SMA
  safety and tolerability (in words): safe and well tolerated
[10]; human, in vivo, SMA patients, steady state, read-out: mean AUCtau at steady state (therapeutic exposure observed in SMA patients)
  AUC: 2000 ng·h/mL
CYP2D6 [11]
  activity: 97%
CYP3A4 [12]; 0 h, 0.1 μM
  Percent CYP3A4 activity remaining: 100%
CYP3A4 [12]; 0 h, 0.2 μM
  Percent CYP3A4 activity remaining: 100%
CYP3A4 [12]; 0 h, 0.5 μM
  Percent CYP3A4 activity remaining: 100%
CYP3A4 [12]; 0 h, 1.3 μM
  Percent CYP3A4 activity remaining: 100%
CYP3A4 [12]; 0 h, 3.2 μM
  Percent CYP3A4 activity remaining: 100%
CYP3A4 [12]; 0 h, 8 μM
  Percent CYP3A4 activity remaining: 100%
CYP3A4 [12]; 0 h, 12.5 μM
  Percent CYP3A4 activity remaining: 100%
CYP3A4 [12]; 4 min, 0.1 μM
  Percent CYP3A4 activity remaining: 90%
CYP3A4 [12]; 4 min, 0.2 μM
  Percent CYP3A4 activity remaining: 90%
CYP3A4 [12]; 4 min, 0.5 μM
  Percent CYP3A4 activity remaining: 87%
CYP3A4 [12]; 4 min, 1.3 μM
  Percent CYP3A4 activity remaining: 82%
CYP3A4 [12]; 4 min, 3.2 μM
  Percent CYP3A4 activity remaining: 89%
CYP3A4 [12]; 4 min, 8 μM
  Percent CYP3A4 activity remaining: 76%
CYP3A4 [12]; 4 min, 12.5 μM
  Percent CYP3A4 activity remaining: 62%
CYP3A4 [12]; 0.25 h, 0.1 μM
  Percent CYP3A4 activity remaining: 80%
CYP3A4 [12]; 0.25 h, 0.2 μM
  Percent CYP3A4 activity remaining: 80%
CYP3A4 [12]; 0.25 h, 0.5 μM
  Percent CYP3A4 activity remaining: 77%
CYP3A4 [12]; 0.25 h, 1.3 μM
  Percent CYP3A4 activity remaining: 71%
CYP3A4 [12]; 0.25 h, 3.2 μM
  Percent CYP3A4 activity remaining: 62%
CYP3A4 [12]; 0.25 h, 8 μM
  Percent CYP3A4 activity remaining: 41%
CYP3A4 [12]; 0.25 h, 12.5 μM
  Percent CYP3A4 activity remaining: 29%
CYP3A4 [12]; 0.5 h, 0.1 μM
  Percent CYP3A4 activity remaining: 78%
CYP3A4 [12]; 0.5 h, 0.2 μM
  Percent CYP3A4 activity remaining: 78%
CYP3A4 [12]; 0.5 h, 0.5 μM
  Percent CYP3A4 activity remaining: 75%
CYP3A4 [12]; 0.5 h, 1.3 μM
  Percent CYP3A4 activity remaining: 65%
CYP3A4 [12]; 0.5 h, 3.2 μM
  Percent CYP3A4 activity remaining: 49%
CYP3A4 [12]; 0.5 h, 8 μM
  Percent CYP3A4 activity remaining: 25%
CYP3A4 [12]; 0.5 h, 12.5 μM
  Percent CYP3A4 activity remaining: 17%
CYP3A4 [12]; 0.75 h, 0.1 μM
  Percent CYP3A4 activity remaining: 72%
CYP3A4 [12]; 0.75 h, 0.2 μM
  Percent CYP3A4 activity remaining: 72%
CYP3A4 [12]; 0.75 h, 0.5 μM
  Percent CYP3A4 activity remaining: 68%
CYP3A4 [12]; 0.75 h, 1.3 μM
  Percent CYP3A4 activity remaining: 55%
CYP3A4 [12]; 0.75 h, 3.2 μM
  Percent CYP3A4 activity remaining: 39%
CYP3A4 [12]; 0.75 h, 8 μM
  Percent CYP3A4 activity remaining: 19%
CYP3A4 [12]; 0.75 h, 12.5 μM
  Percent CYP3A4 activity remaining: 13%
CYP3A4 [12]; 1 h, 0.1 μM
  Percent CYP3A4 activity remaining: 65%
CYP3A4 [12]; 1 h, 0.2 μM
  Percent CYP3A4 activity remaining: 65%
CYP3A4 [12]; 1 h, 0.5 μM
  Percent CYP3A4 activity remaining: 59%
CYP3A4 [12]; 1 h, 1.3 μM
  Percent CYP3A4 activity remaining: 48%
CYP3A4 [12]; 1 h, 3.2 μM
  Percent CYP3A4 activity remaining: 36%
CYP3A4 [12]; 1 h, 8 μM
  Percent CYP3A4 activity remaining: 15%
CYP3A4 [12]; 1 h, 12.5 μM
  Percent CYP3A4 activity remaining: 10%
CYP3A4 [13]
  KI: 13 µM
